Format in all cases: biochemical
Assay [1] has as its target T1, human JAK1 (a.a. 837-1142) (Homo sapiens, UniProt P23458).
T1 construct: human JAK1 (a.a. 837-1142); His tag (N); made in house; host or cells: insect cells (baculovirus)
The experiment in a line: In vitro JAK kinase assay (HTRF, phosphorylation of a biotinylated peptide), JAK1. As to conditions: read-out: JAK1 IC50. The method, boiled down:
(§1)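 Kinase activity was measured as phosphorylation of a biotinylated peptide, with ATP at 90 μM for JAK1, 30 μM for JAK2 and 3 μM for JAK3. Reactions ran 1 hr at room temperature, were stopped with EDTA plus SA-APC and Eu-Py20, and were read by HTRF after 40 minutes of antibody binding.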

The target in assay [2] is T2, human JAK2 (a.a. 828-1132) (Homo sapiens, UniProt O60674).
T2 construct: JAK2 (a.a. 828-1132); His tag (N); made in house; host or cells: insect cells (baculovirus)
The experiment in a line: In vitro JAK kinase assay (HTRF, phosphorylation of a biotinylated peptide), JAK2. The method, boiled down:
as §1
(In general: In TR-FRET formats the signal depends on donor and acceptor labels being close together.)

The target in assay [3] is T3, human JAK3 (a.a. 781-1124) (Homo sapiens, UniProt P52333).
T3 construct: JAK3 (a.a. 781-1124); His tag (N); made in house; host or cells: insect cells (baculovirus)
The experiment in a line: In vitro JAK kinase assay (HTRF, phosphorylation of a biotinylated peptide), JAK3. The gist of the method:
as §1

For the next assay, the target named is TYK2 (Homo sapiens, UniProt P29597). The experiment in a line: TYK2 kinase inhibition (Table A1).
Assay [4] has as its target T4, Recombinant Human Anaplastic Lymphoma Kinase (Homo sapiens, UniProt Q9UM73).
T4 construct: purchased Invitrogen, Carlsbad, Calif
The experiment in a line: ALK HTRF kinase assay. The gist of the method: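 Recombinant human ALK phosphorylated a biotinylated synthetic peptide. Phosphotyrosine was detected by TR-FRET between a Eu-labelled anti-phosphotyrosine antibody and streptavidin-allophycocyanin. IC50 values came from fitting signal against inhibitor concentration to a four-parameter logistic equation with variable Hill slope.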

[5] abbreviates: Table B1, cells without percent sign.
Where [6] appears, read: method AA1 (90 μM ATP) or AA2 (1000 μM ATP), not stated per value.
Setting [7] is: method AA1 (30 μM ATP) or AA2 (1000 μM ATP), not stated per value.
Where [8] appears, read: method AA1 (3 μM ATP) or AA2 (1000 μM ATP), not stated per value.
Setting [9] is: compound at 500 nM or 1 mM, 90 μM ATP.

Structures can show the parent of a compound that is named as a salt. Where two headings read alike, the source gives them in different places.

From patent US8871753B2, “Macrocyclic compounds and their use as kinase inhibitors” (Incyte Corporation, priority 2008, dated 2014) come the findings set out here.

T1 sequence (P23458 849-1154): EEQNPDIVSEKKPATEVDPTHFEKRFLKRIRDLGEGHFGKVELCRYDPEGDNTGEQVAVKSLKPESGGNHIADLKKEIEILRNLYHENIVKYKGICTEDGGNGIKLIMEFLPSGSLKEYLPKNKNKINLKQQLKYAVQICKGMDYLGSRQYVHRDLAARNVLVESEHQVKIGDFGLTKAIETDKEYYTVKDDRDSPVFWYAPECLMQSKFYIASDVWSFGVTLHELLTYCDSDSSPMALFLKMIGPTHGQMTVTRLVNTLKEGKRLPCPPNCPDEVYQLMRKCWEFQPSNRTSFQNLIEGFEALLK
T3 sequence (P52333 781-1124): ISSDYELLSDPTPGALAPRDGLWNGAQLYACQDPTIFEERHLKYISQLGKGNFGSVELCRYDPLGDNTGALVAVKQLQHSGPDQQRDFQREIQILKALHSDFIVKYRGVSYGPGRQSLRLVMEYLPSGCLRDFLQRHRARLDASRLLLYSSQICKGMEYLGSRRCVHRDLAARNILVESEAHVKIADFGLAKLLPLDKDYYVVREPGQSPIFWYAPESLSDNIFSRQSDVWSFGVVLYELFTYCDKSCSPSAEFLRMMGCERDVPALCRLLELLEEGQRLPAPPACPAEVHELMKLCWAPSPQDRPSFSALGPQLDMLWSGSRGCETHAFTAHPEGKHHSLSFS
T4 sequence (Q9UM73 19-1620): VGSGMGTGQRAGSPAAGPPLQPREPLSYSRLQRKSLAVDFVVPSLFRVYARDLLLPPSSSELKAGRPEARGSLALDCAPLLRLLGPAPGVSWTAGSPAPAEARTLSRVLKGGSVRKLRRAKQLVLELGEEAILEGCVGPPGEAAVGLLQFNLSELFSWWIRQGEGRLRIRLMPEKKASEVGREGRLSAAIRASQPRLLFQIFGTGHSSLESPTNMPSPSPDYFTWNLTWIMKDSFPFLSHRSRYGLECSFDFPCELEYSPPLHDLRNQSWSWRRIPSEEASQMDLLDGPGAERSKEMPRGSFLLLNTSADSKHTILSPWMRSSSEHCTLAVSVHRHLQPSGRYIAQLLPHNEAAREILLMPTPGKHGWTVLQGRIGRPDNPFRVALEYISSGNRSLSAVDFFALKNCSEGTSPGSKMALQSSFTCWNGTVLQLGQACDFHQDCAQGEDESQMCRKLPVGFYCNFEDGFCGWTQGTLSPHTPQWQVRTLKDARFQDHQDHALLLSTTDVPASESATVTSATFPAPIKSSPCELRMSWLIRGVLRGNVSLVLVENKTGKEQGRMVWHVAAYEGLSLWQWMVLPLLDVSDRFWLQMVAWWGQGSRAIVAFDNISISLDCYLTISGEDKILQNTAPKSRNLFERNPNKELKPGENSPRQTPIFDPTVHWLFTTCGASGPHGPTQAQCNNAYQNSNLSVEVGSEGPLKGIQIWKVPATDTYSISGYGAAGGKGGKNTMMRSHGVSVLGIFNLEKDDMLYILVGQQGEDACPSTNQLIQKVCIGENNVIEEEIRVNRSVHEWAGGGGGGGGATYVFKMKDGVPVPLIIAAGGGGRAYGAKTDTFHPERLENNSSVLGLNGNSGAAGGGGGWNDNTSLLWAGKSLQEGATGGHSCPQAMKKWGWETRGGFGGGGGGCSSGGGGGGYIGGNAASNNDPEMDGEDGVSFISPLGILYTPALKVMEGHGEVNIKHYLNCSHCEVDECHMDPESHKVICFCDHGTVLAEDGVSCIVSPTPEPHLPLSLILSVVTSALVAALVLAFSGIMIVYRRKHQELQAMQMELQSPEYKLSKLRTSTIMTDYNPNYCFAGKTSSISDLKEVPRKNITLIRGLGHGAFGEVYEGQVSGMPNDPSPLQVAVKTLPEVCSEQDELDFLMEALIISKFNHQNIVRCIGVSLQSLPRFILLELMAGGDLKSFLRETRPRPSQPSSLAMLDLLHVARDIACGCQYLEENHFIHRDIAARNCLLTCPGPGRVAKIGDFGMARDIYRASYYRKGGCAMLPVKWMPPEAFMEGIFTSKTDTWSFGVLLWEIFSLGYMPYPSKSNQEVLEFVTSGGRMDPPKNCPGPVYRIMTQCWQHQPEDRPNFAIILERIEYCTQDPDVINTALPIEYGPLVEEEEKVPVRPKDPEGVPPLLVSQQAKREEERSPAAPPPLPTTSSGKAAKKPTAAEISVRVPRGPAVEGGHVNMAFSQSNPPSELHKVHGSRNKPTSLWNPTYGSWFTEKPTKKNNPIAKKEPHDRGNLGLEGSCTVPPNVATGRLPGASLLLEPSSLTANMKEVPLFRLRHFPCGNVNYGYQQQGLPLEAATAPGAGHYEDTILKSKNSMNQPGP
T2 sequence (O60674 828-1132): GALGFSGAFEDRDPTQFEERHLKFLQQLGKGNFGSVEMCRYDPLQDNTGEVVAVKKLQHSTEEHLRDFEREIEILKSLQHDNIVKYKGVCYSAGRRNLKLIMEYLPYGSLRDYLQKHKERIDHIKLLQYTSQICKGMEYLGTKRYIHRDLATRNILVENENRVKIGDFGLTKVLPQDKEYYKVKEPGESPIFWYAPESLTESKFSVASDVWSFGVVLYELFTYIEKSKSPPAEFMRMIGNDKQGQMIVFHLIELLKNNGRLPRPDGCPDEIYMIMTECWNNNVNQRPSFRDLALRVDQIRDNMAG
Sequence of TYK2 (P29597 whole entry): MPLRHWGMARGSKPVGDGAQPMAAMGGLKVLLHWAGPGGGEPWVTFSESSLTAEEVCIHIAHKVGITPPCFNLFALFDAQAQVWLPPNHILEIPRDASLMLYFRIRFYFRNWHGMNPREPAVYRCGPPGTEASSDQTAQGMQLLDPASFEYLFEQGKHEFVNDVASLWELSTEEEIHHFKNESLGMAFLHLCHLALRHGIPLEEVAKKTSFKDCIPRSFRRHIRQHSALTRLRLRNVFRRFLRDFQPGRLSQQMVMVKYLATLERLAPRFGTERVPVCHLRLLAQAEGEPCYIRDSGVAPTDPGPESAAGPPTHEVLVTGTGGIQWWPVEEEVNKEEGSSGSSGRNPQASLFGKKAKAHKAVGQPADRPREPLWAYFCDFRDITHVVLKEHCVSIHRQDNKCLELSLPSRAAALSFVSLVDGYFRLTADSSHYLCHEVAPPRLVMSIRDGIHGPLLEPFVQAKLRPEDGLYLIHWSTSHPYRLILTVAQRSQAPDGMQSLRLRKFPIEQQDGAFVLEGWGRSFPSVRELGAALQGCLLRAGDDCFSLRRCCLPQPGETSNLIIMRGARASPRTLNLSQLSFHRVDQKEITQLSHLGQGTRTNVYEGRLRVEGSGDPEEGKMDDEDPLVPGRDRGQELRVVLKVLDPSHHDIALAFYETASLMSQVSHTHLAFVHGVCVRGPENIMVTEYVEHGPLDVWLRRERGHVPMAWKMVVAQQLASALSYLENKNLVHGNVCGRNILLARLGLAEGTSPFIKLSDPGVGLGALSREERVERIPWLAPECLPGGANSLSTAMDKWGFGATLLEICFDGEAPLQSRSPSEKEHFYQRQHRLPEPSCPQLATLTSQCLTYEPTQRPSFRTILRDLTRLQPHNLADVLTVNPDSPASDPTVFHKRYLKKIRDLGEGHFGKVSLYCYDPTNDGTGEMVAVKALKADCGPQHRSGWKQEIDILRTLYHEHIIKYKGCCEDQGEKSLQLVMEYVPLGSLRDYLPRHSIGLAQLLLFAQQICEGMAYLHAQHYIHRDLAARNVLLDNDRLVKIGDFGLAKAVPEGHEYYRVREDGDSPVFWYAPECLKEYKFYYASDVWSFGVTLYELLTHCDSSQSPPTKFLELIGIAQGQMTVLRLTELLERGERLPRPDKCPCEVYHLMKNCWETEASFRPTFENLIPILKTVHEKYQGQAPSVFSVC

Consider `N#Cc1ccc(S(=O)(=O)Nc2ccc3cc2CCc2cccc(c2)Nc2ncc(Cl)c(n2)N3)cc1` [Example B154, N-[6-Chloro-2,4,8,22-tetraazatetracyclo[14.3.1.1(3,7).1(9,13)]docosa-1(20), 3(22),4,6,9(21),10,12,16,18-nonaen-12-yl]-4-cyanobenzenesulfonamide trifluoroacetate], for which the IC50 in assay [1] (Table B1) stood at 0.6 nM; in assay [2] (Table B1) it was 0.1 nM; in assay [3] (Table B1) it was 5.3 nM; against TYK2 (Table B1), 0.83 nM; in assay [4] (setting [5]) it was 280 nM.

In the case of `O=C(CC1CCN(c2nncs2)CC1)Nc1ccc2cc1CCc1cccc(c1)Nc1ncc(Cl)c(n1)N2` [Example A183, N-[6-Chloro-2,4,8,22-tetraazatetracyclo[14.3.1.1(3,7).1(9,13)]docosa-1(20),3(22),4,6,9(21),10,12,16,18-nonaen-12-yl]-2-[1-(1,3,4-thiadiazol-2-yl)piperidin-4-yl]acetamide bis(trifluoroacetate)], the IC50 in assay [1] (setting [6]) is 3.6 nM; in assay [2] (setting [7]), 22 nM; in assay [3] (setting [8]) it was over 200 nM; on TYK2 it was 30 nM. Besides, the “ALK % of inhibition at a concentration of 500 nM or 1 mM” value (“ALK % of inhibition” for short) in assay [4] (setting [9]) was found to be 40%.

In the case of `O=C(CC1CCN(C(=O)c2ccno2)CC1)Nc1ccc2cc1CCc1cncc(c1)Nc1ncc(Cl)c(n1)N2` [Example A128, N-[6-Chloro-2,4,8,18,22-pentaazatetracyclo[14.3.1.1(3,7).1(9,13)]docosa-1(20),3(22),4,6,9(21),10,12,16,18-nonaen-12-yl]-2-[1-(isoxazol-5-ylcarbonyl)piperidin-4-yl]acetamide bis(trifluoroacetate)], the IC50 in assay [1] (setting [6]) stood at 0.6 nM; in assay [2] (setting [7]) it was 4.1 nM; in assay [3] (setting [8]) it was 64 nM; at TYK2, 1.6 nM. For the same compound, in assay [4] (setting [9]), the “ALK % of inhibition” value turned out to be 34%.

`CS(=O)(=O)N1CCC(CC(=O)Nc2ccc3cc2CCc2cncc(c2)Nc2ncc(Cl)c(n2)N3)CC1` [Example A79, N-[6-Chloro-2,4,8,18,22-pentaazatetracyclo[14.3.1.1(3,7).1(9,13)]docosa-1(20),3(22),4,6,9(21),10,12,16,18-nonaen-12-yl]-2-[1-(methylsulfonyl)piperidin-4-yl]acetamide bis(trifluoroacetate)]: the IC50 came out at 0.5 nM in assay [1] (setting [6]), 1.9 nM in assay [2] (setting [7]), 46 nM in assay [3] (setting [8]) and 3.6 nM on TYK2. The “ALK % of inhibition” value in assay [4] (setting [9]) was determined as 33%.

As to `CC(=O)N1CCC(CC(=O)Nc2ccc3cc2CCc2cccc(c2)Nc2ncc(Cl)c(n2)N3)CC1` [Example A55, 2-(1-Acetylpiperidin-4-yl)-N-[6-chloro-2,4,8,22-tetraazatetracyclo[14.3.1.1(3,7).1(9,13)]docosa-1(20),3(22),4,6,9(21),10,12,16,18-nonaen-12-yl]acetamide trifluoroacetate], the IC50 in assay [1] (setting [6]) worked out at 1.5 nM; in assay [2] (setting [7]), 2.4 nM; in assay [3] (setting [8]), 54 nM; at TYK2, 2.3 nM. The “ALK % of inhibition” value in assay [4] (setting [9]) came out at 23%.

As to `O=C(O)c1cc2cc(c1)Nc1nc(ncc1Cl)Nc1cccc(c1)CC2` [Example B6, 6-Chloro-2,4,8,22-tetraazatetracyclo[14.3.1.1(3,7).1(9,13)]docosa-1(20),3(22),4,6,9(21),10,12,16,18-nonaene-11-carboxylic acid trifluoroacetate], the IC50 in assay [1] (Table B1) is over 1000 nM; in assay [2] (Table B1), 800 nM; in assay [3] (Table B1), over 1000 nM; against TYK2 (Table B1), over 1000 nM; in assay [4] (setting [5]), over 1000 nM.

On to `O=C(CC1CCN(S(=O)(=O)c2ccccc2F)CC1)Nc1ccc2cc1CCc1cncc(c1)Nc1ncc(Cl)c(n1)N2` [Example A226, N-[6-Chloro-2,4,8,18,22-pentaazatetracyclo[14.3.1.1(3,7).1(9,13)]docosa-1(20),3(22),4,6,9(21),10,12,16,18-nonaen-12-yl]-2-{1-[(2-fluorophenyl)sulfonyl]piperidin-4-yl}acetamide bis(trifluoroacetate)], for which the IC50 was 5.3 nM in assay [1] (setting [6]), 100 nM in assay [2] (setting [7]), over 400 nM in assay [3] (setting [8]) and over 400 nM at TYK2. For the same compound, the “ALK % of inhibition” value in assay [4] (setting [9]) is recorded as 55%.

On to `CCNC(=O)N1CC[C@@H](C(=O)Nc2ccc3cc2CCc2cccc(c2)Nc2ncc(Cl)c(n2)N3)C1` [Example A53, (3R)—N(3)-[6-Chloro-2,4,8,22-tetraazatetracyclo[14.3.1.1(3,7).1(9,13)]docosa-1(20),3(22),4,6,9(21),10,12,16,18-nonaen-12-yl]-N(1)-ethylpyrrolidine-1,3-dicarboxamide trifluoroacetate], for which the IC50 in assay [1] (setting [6]) came to 6.1 nM; in assay [2] (setting [7]), 1.2 nM; in assay [3] (setting [8]) it was 3.2 nM; on TYK2 it was 14 nM. For the same compound, in assay [4] (setting [9]), the “ALK % of inhibition” value is recorded as 35%.

Take `Oc1ccc2cc1Nc1nc(ncc1Cl)Nc1cccc(c1)CC2` [Example A26, 6-Chloro-2,4,8,22-tetraazatetracyclo[14.3.1.1(3,7).1(9,13)]docosa-1(20),3(22),4,6,9(21),10,12,16,18-nonaen-10-ol trifluoroacetate]: the IC50 in assay [1] (setting [6]) was 36 nM; in assay [2] (setting [7]), 11 nM; in assay [3] (setting [8]), 9.2 nM; against TYK2, 45 nM; in assay [4] (90 μM ATP), 350 nM.

Consider `Cc1cc(C(=O)N2CCC(CCC(=O)Nc3ccc4cc3CCc3cccc(c3)Nc3ncc(Cl)c(n3)N4)CC2)no1` [Example A124, N-[6-Chloro-2,4,8,22-tetraazatetracyclo[14.3.1.1(3,7).1(9,13)]docosa-1(20),3(22),4,6,9(21),10,12,16,18-nonaen-12-yl]-3-{1-[(5-methylisoxazol-3-yl)carbonyl]piperidin-4-yl}propanamide trifluoroacetate], for which the IC50 in assay [1] (setting [6]) came to 0.6 nM; in assay [2] (setting [7]), 2.5 nM; in assay [3] (setting [8]), 39 nM; against TYK2, 5.4 nM. Moreover, the “ALK % of inhibition” value in assay [4] (setting [9]) is 34%.

As for `Cc1ncoc1C(=O)Nc1ccc2cc1CCc1cccc(c1)Nc1ncc(Cl)c(n1)N2` [Example B78, N-[6-Chloro-2,4,8,22-tetraazatetracyclo[14.3.1.1(3,7).1(9,13)]docosa-1(20),3(22),4,6,9(21),10,12,16,18-nonaen-12-yl]-4-methyl-1,3-oxazole-5-carboxamide trifluoroacetate], the IC50 turned out to be 11 nM in assay [1] (Table B1), 12 nM in assay [2] (Table B1), 57 nM in assay [3] (Table B1) and 29 nM against TYK2 (Table B1). For the same compound, in assay [4] (compound at a concentration of 500 nM or 1 mM (not specified), cells shown as percentage), the “ALK % of inhibition” value came out at 44%.

Turning to `CC(=O)N1CC[C@@H](C(=O)Nc2ccc3cc2CCc2cccc(c2)Nc2ncc(Cl)c(n2)N3)C1` [Example A51, (3R)-1-Acetyl-N-[6-chloro-2,4,8,22-tetraazatetracyclo[14.3.1.1(3,7).1(9,13)]docosa-1(20),3(22),4,6,9(21),10,12,16,18-nonaen-12-yl]pyrrolidine-3-carboxamide trifluoroacetate], the IC50 in assay [1] (setting [6]) stood at 13 nM; in assay [2] (setting [7]) it was 5 nM; in assay [3] (setting [8]) it was 10 nM; against TYK2 it was 21 nM. In addition, in assay [4] (setting [9]), the “ALK % of inhibition” value was determined as 30%.

As usually defined, the IC50 is the concentration that gives 50% inhibition.
